US20110098288A1, “SULFONAMIDES AS ZAP-70 INHIBITORS” (priority 2008, published 2011)

Key:
ZAP-70 = target: T1, ZAP-70 (Homo sapiens, UniProt P43403); assay: ZAP-70 kinobeads assay; format: binding; conditions: competition with immobilized aminopyrido-pyrimidine ligand 24 in cell lysate; ZAP-70 detected by dot blot
T1 construct: endogenous in cells; host or cells: cell lysate
T1 sequence (P43403 1-619): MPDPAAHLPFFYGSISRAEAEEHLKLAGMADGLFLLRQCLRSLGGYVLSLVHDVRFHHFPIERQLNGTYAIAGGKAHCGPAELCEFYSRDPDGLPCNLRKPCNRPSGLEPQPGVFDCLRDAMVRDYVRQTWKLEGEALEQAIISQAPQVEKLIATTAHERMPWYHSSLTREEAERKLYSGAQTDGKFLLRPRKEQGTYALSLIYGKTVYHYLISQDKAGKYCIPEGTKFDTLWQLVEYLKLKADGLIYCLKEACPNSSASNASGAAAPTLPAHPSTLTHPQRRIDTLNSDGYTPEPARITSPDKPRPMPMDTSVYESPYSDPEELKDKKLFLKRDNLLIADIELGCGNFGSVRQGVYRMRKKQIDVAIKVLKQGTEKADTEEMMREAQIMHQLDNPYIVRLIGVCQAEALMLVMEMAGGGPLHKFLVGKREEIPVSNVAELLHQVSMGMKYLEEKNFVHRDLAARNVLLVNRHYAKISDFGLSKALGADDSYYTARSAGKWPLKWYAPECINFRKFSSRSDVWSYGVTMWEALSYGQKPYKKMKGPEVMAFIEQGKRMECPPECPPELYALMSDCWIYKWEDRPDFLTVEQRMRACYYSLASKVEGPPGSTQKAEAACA
Procedure, shortened: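 Competition binding format: compounds compete with a bead-immobilized aminopyrido-pyrimidine ligand for ZAP-70 in cell lysate. After bead separation and elution, bound ZAP-70 measured by antibody dot blot with infrared read-out.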

Jurkat cells = assay: Calcium release assay (Fluo-4 flow cytometry after anti-CD3 stimulation); format: cell-based; conditions: Homo sapiens, Jurkat cell line J77, anti-CD3 activation, read-out: IC50 (Calcium ion release in cells)
Experimental: Compounds of the present invention were tested in a Calcium release assay as described below.
The development of fluorescent probes makes it possible to measure the concentration of intracellular free Calcium ions in single living cells. Cells are first loaded with a cell-permeable Ca^2+-sensitive dye, then the test compound is added. Finally, cells are activated through the T cell receptor with an anti-CD3 antibody shortly before data acquisition on the flow cytometer. The release of Ca^2+ is measured as a function of time after cell stimulation. This protocol describes the flow cytometry method using the Fluo-3 and Fluo-4 dyes (Minta et al., 1989, J. Biol. Chem. 264(14):8171-8178) to measure the intracellular Ca^2+ concentration in Jurkat cells (see also June et al., 1997, Measurement of intracellular calcium ions by flow cytometry. In: Current Protocols in Cytometry (1997) Unit 9.8.1-9.8.19, John Wiley & Sons, Inc.).
In general, cells should be handled in the shortest time possible to assure their stability. Therefore the preparation of all materials in advance is highly recommended as well as using any incubation or centrifugation time to prepare the next steps (e.g. preparing compound dilution or starting the flow cytometer).
1) Prepare a work plan indicating the number of samples to be analyzed including controls. 2) Cell harvest: Centrifuge 50 to 100 ml of a Jurkat cell culture for 5 minutes at 1100 rpm. Discard the supernatant, pool the resuspended cell pellets in a single 50 ml Falcon tube, and fill up to 50 ml with PBS—CaCl2 (without FCS). Centrifuge again sample again. 3) Resuspend cell pellet with PBS—CaCl2 (without FCS) to achieve a concentration not lower than 10×10^6 cells/ml. Prepare an adequate dilution to evaluate the cell concentration and count the cells. 4) Separate the volume of cells needed to be loaded (for example […] for 20 samples) in a 50 ml Falcon tube. Fill up with PBS—CaCl2 to 900 μl for 107 cells. 5) Prepare in the dark a 1:1 mix of FLUO-4 (1 mM)+Pluronic F-127 (20%). 5 μl of Fluo-4 are needed per 107 cells. 6) Prepare a 1/10 dilution of this mix with PBS—CaCl2 (in the dark; for example 5 μl Fluo-4+5 μl F-127 completed to 100 μl). 7) Add the dye solution to the cells. […] 8) Incubate the sample for 30 minutes in a cell incubator (37° C., 5% CO2). Mix from time to time. 9) During this time prepare the adequate test compound dilution in PBS—CaCl2 (with 10% FCS). The solution should be 10 times more concentrated than the desired final concentration. Vortex each dilution. Prepare also the antibody dilutions: anti-CD3 (1/200) and GAM (1/25). 10) Label FACS tubes and distribute in the corresponding tube 30 μl of the compound dilution or only buffer for the control tubes. 11) After 30 minutes of incubation wash the cells twice in PBS—CaCl2 (with 10% FCS). During the washing steps make sure that the flow cytometer is already “ON” in order to warm the laser. 12) Resuspend the cell pellet in PBS—CaCl2 (with 10% FCS) at a concentration of 1.5×10^6 cells/ml. 13) Distribute 300 μl of cell suspension into the FACS tubes and mix gently. The compound incubation is starting. Keep samples at room temperature in the dark. 14) Open the settings of the cytometer. It is advised to have a template ready which is used for all measurements. Settings of the machine should also be the same from one experiment to the other which permits to evaluate the reproducibility of the cell preparation. 15) In Setup modus control your cell preparation on the cytometer. Cells should fit in the pre-defined gates. 16) During the compound incubation time, check also that cells are responding to the anti-CD3 activation as expected. Set a timer at 8 sec. Add 6 μl of anti-CD3 dilution (0.2 μg/ml final) and mix gently. Add 1 μl of GAM dilution (0.75 μg/ml final) and mix gently. Incubate the samples in water bath at 37° C. while starting timer. After 8 seconds of incubation, acquire data at medium speed for 200 seconds. […]

SMILES	IC50 (ZAP-70)	IC50 (Jurkat cells)
CCNC(=O)COc1cccc(Nc2ncc(F)c(Nc3ccccc3NS(C)(=O)=O)n2)c1 [Example 101, N-ethyl-2-(3-(5-fluoro-4-(2-(methylsulfonamido)phenylamino)pyrimidin-2-ylamino)phenoxy)acetamide]	100 to 1000 nM	100 to 1000 nM
Cc1cccc(Nc2nc(Nc3cccc(OCCN4CCCCC4)c3)ncc2F)c1NS(C)(=O)=O [Example 112, N-(2-(5-fluoro-2-(3-(2-(piperidin-1-yl)ethoxy)phenylamino)pyrimidin-4-ylamino)-6-methylphenyl)methanesulfonamide]	< 100 nM	100 to 1000 nM
COc1cc(Nc2ncc(Cl)c(Nc3cccc(C)c3NS(C)(=O)=O)n2)cc(OC)c1OC [Example 160, N-(2-(5-chloro-2-(3,4,5-trimethoxyphenylamino)pyrimidin-4-ylamino)-6-methylphenyl)methanesulfonamide]	< 100 nM	< 100 nM
COc1cc(Nc2ncc(F)c(Nc3cccc(C(C)C)c3NS(C)(=O)=O)n2)cc(OC)c1OC [Example 161, N-(2-(5-fluoro-2-(3,4,5-trimethoxyphenylamino)pyrimidin-4-ylamino)-6-isopropylphenyl)methanesulfonamide]	100 to 1000 nM	100 to 1000 nM
CCOc1cccc(Nc2nc(Nc3cc(OC)c(OC)c(OC)c3)ncc2F)c1NS(C)(=O)=O [Example 166, N-(2-ethoxy-6-(5-fluoro-2-(3,4,5-trimethoxyphenylamino)pyrimidin-4-ylamino)phenyl)methanesulfonamide]	< 100 nM	100 to 1000 nM
CS(=O)(=O)Nc1ccccc1Nc1nc(Nc2cccc(OCCN3CCCC3)c2)ncc1F [Example 95, N-(2-(5-fluoro-2-(3-(2-(pyrrolidin-1-yl)ethoxy)phenylamino)pyrimidin-4-ylamino)phenyl)methanesulfonamide]	< 100 nM	100 to 1000 nM
COc1cc(Nc2nccc(Nc3cccc(C)c3NS(C)(=O)=O)n2)cc(OC)c1OC [Example 176, N-(2-methyl-6-(2-(3,4,5-trimethoxyphenylamino)pyrimidin-4-ylamino)phenyl)methanesulfonamide]	100 to 1000 nM	< 100 nM
COc1cc(Nc2ncc(Br)c(Nc3ccccc3NS(C)(=O)=O)n2)cc(OC)c1 [Example 105, N-(2-(5-bromo-2-(3,5-dimethoxyphenylamino)pyrimidin-4-ylamino)phenyl)methanesulfonamide]	100 to 1000 nM	< 100 nM
COc1cc(Nc2ncc(C)c(Nc3ccccc3NS(C)(=O)=O)n2)cc(OC)c1OC [Example 66, N-(2-(5-methyl-2-(3,4,5-trimethoxyphenylamino)pyrimidin-4-ylamino)phenyl)methanesulfonamide]	100 to 1000 nM	100 to 1000 nM
CS(=O)(=O)Nc1ccccc1Nc1nc(Nc2cccc(OCC3CCNCC3)c2)ncc1Cl [Example 129, N-(2-(5-chloro-2-(3-(piperidin-4-ylmethoxy)phenylamino)pyrimidin-4-ylamino)phenyl)methanesulfonamide]	< 100 nM	100 to 1000 nM
COc1cc(Nc2ncc(Br)c(Nc3ccccc3NS(C)(=O)=O)n2)ccc1C [Example 104, N-(2-(5-bromo-2-(3-methoxy-4-methylphenylamino)pyrimidin-4-ylamino)phenyl)methanesulfonamide]	100 to 1000 nM	100 to 1000 nM
CNCCS(=O)(=O)Nc1cccc(Nc2nc(Nc3cc(OC)c(OC)c(OC)c3)ncc2F)c1 [Example 64, N-(3-(5-fluoro-2-(3,4,5-trimethoxyphenylamino)pyrimidin-4-ylamino)phenyl)-2-(methylamino)ethanesulfonamide]	100 to 1000 nM	100 to 1000 nM
COc1cc(Nc2ncc(F)c(Nc3ccccc3NS(C)(=O)=O)n2)ccc1N1CCCC1 [Example 88, N-(2-(5-fluoro-2-(3-methoxy-4-(pyrrolidin-1-yl)phenylamino)pyrimidin-4-ylamino)phenyl)methanesulfonamide]	100 to 1000 nM	100 to 1000 nM
COc1cc(Nc2ncc(F)c(Nc3cccc(C)c3NS(C)(=O)=O)n2)cc(OC)c1OC [Example 116, N-(2-(5-fluoro-2-(3,4,5-trimethoxyphenylamino)pyrimidin-4-ylamino)-6-methylphenyl)methanesulfonamide]	100 to 1000 nM	100 to 1000 nM

Now from value to compound:

IC50 (ZAP-70)	IC50 (Jurkat cells)	SMILES
100 to 1000 nM	100 to 1000 nM	COc1cc(Nc2nccc(Nc3ccccc3NS(C)(=O)=O)n2)cc(OC)c1OC [Example 69, N-(2-(2-(3,4,5-trimethoxyphenylamino)pyrimidin-4-ylamino)phenyl)methanesulfonamide]
< 100 nM	100 to 1000 nM	COc1cc(Nc2ncc(Br)c(Nc3ccccc3NS(C)(=O)=O)n2)cc(OC)c1OC [Example 70, N-(2-(5-bromo-2-(3,4,5-trimethoxyphenylamino)pyrimidin-4-ylamino)phenyl)methanesulfonamide]
100 to 1000 nM	100 to 1000 nM	CS(=O)(=O)Nc1ccccc1Nc1nc(Nc2ccc3cn[nH]c3c2)ncc1F [Example 32, N-(2-(2-(1H-indazol-6-ylamino)-5-fluoropyrimidin-4-ylamino)phenyl)methanesulfonamide]
< 100 nM	< 100 nM	CS(=O)(=O)Nc1ccccc1Nc1nc(Nc2cccc(OCCN3CCCC3)c2)ncc1Cl [Example 140, N-(2-(5-chloro-2-(3-(2-(pyrrolidin-1-yl)ethoxy)phenylamino)pyrimidin-4-ylamino)phenyl)methanesulfonamide]
100 to 1000 nM	100 to 1000 nM	Cc1cc(C)cc(Nc2ncc(C)c(Nc3ccccc3NS(C)(=O)=O)n2)c1 [Example 67, N-(2-(2-(3,5-dimethylphenylamino)-5-methylpyrimidin-4-ylamino)phenyl)methanesulfonamide]
100 to 1000 nM	100 to 1000 nM	COc1cc(Nc2ncc(F)c(Nc3ccc(C)c(C)c3NS(C)(=O)=O)n2)cc(OC)c1OC [Example 165, N-(6-(5-fluoro-2-(3,4,5-trimethoxyphenylamino)pyrimidin-4-ylamino)-2,3-dimethylphenyl)methanesulfonamide]
100 to 1000 nM	100 to 1000 nM	CS(=O)(=O)Nc1ccccc1Nc1nc(Nc2ccc(OCCCN3CCCC3)cc2)ncc1F [Example 92]
